Measurements reported in patent US9994509B2, “Inhibitors of viral replication, their process of preparation and their therapeutical uses” (HIVIH, priority 2013, dated 2018).
Read-outs that look alike come from different tables or passages of the source.

System: NL4-3 strain of HIV-1
Experiment: HIV-1 replication assay: cyto-protection of MT4 cells infected with NL4-3 virus, CellTiter-Glo viability readout
Assay type: cell-based
Protocol: The antiviral activity, particularly against HIV, of compounds according to the invention is evaluated by the protocol described below.
Preparation of Virus stock of the NL4-3 strain of HIV-1 (Adachi et al, J Virol, 1986, 59(2):284-91).
The virus was prepared as described in Lopez et al (Lopez et al, Proc Natl Acad Sci USA., 2006, 103(40):14947-52, by transfecting 2×10^6 293 T cells (CRL-1573, ATCC) with following modifications: 6 μg of NL4-3 proviral DNA molecular clone were mixed with X-tremeGENE 9 DNA transfection reagent from Roche, and used according to manufacturer's instructions. Twenty four hours later, cells were washed and fresh medium added. Forty eight hours after transfection, cell supernatants were harvested, filtered through 0.45-μm-pore-size filters, quantified for HIV-1 p24 antigen by using an Innotest HIV antigen mAb assay (Ingen) according to manufacturer's instructions, and used in infection experiments.
Serial dilutions of compounds to be tested were prepared in complete RPMI medium from 10 mM DMSO stock solutions, and distributed in a volume of 20 μl in 96 well tissue-culture treated plates (Costar 3917), in order to get 0.5% DMSO final concentration in each well, after the addition of infected cells. Control wells contained also 0.5% DMSO final concentration but no compound.
MT4 cells (from the NIH AIDS Research and Reference Reagent Program) in RPMI complete medium were counted (10×10^6 cells per well in Falcon 353047 Multiwell™ 24 well) and infected for 2 hours at 37°, at a multiplicity of infection (moi) of 0.0001-0.00001. Cells were then centrifuged for 3 min at 3000 rpm, and washed two times in 1 ml PBS to remove viruses that have not entered the cells. Infected cells were resuspended in complete RPMI at 1.25×10^6 cells/ml, and 80 μl of infected cells were distributed in each well containing compounds to be tested or control wells. The plates were then incubated at 37° C. for 5 days.
Assay used to measure the inhibition of HIV replication by the compounds (according to Gregg S. Jones et al., Antimicrobial Agents and Chemotherapy, 2009, 53 (3): 1194-1203).
After 5 days of incubation, microplates were equilibrated to room temperature for 30 min and then 50 μl of CellTiter-Glo reagent (Promega Biosciences, Inc., Madison Wis., USA) were added to each well. Cell lysis was carried out at room temperature during 10 min and luminescence was read on a Fluoroskan (Thermo Scientific).
The EC50, or effective concentration 50, is the concentration of compound leading to 50% of cyto-protection in a CellTiter-Glo® viability assay based on MT4 cells infected with NL4-3 virus (table 1).

[1] = Human immunodeficiency virus 1, NL43, 120 h, concentration leading to 50% of cyto-protection, MT4 cells infected with NL4-3 virus, 5 days incubation, CellTiter-Glo, read-out: EC50

| Structure (SMILES) | EC50 [1] [nM] | EC50 (Human immunodeficiency virus 1, NL43, MT4, 120 h) [nM] |
| --- | --- | --- |
| Cc1ccc(C2CC2)c(-c2ccc3c(c2C)CCCO3)c1[C@H](OC(C)(C)C)C(=O)O (atropisomer, axis not shown) [Example 38, (S)-tert-butoxy-[3-cyclopropyl-6-methyl-2-(5-methyl-chroman-6-yl)-phenyl]-acetic acid] | 3 |  |
| Cc1ccc(C2CC2)c(-c2ccc3c(c2C)CCCO3)c1[C@H](OC1CC1)C(=O)O (atropisomer, axis not shown) [Example 40, (S)-cyclopropoxy-[3-cyclopropyl-6-methyl-2-(5-methyl-chroman-6-yl)-phenyl]-acetic acid] | 14 |  |
| Cc1ccc(C2CC2)c(-c2cc(F)c3c(c2C)CCCO3)c1[C@H](OC(C)(C)C)C(=O)O (atropisomer, axis not shown) [Example 41, (S)-tert-butoxy-[3-cyclopropyl-2-(8-fluoro-5-methyl-chroman-6-yl)-6-methyl-phenyl]-acetic acid] | 6 |  |
| Cc1ccc(C2CC2)c(-c2cc(F)c3c(c2C)CCCO3)c1[C@H](OC1CC1)C(=O)O (atropisomer, axis not shown) [Example 44, (S)-cyclopropoxy-[3-cyclopropyl-2-(8-fluoro-5-methyl-chroman-6-yl)-6-methyl-phenyl]-acetic acid] | 17 |  |
| Cc1ccc([C@@H]2C[C@@H]2C)c(-c2ccc3c(c2)CCCO3)c1C(OC(C)(C)C)C(=O)O (relative stereo) [Example 26, tert-Butoxy-[2-chroman-6-yl-6-methyl-3-(cis-2-methyl-cyclopropyl)-phenyl]-acetic acid] | 300 |  |
| Cc1ccc(C2CC2)c(-c2ccc3c(c2)CCCO3)c1C(OC(C)(C)C)C(=O)O (stereo not drawn) [Example 1, 2-(tert-butoxy)-2-[3-cyclopropyl-2-(3,4-dihydro-2H-1-benzopyran-6-yl)-6-methylphenyl]acetic acid] | 17 |  |
| CC(C)(C)OC(C(=O)O)c1c(C(F)(F)F)ccc(C2CC2)c1-c1ccc2c(c1)CCCO2 (stereo not drawn) [Example 2, 2-(tert-butoxy)-2-[3-cyclopropyl-2-(3,4-dihydro-2H-1-benzopyran-6-yl)-6-(trifluoromethyl)phenyl]acetic acid] | 90 |  |
| C=C(C)c1ccc(C)c(C(OC(C)(C)C)C(=O)O)c1-c1ccc2c(c1)CCCO2 (stereo not drawn) [Example 4, 2-(tert-butoxy)-2-[2-(3,4-dihydro-2H-1-benzopyran-6-yl)-3-isopropenyl-6-methylphenyl]acetic acid] | 34 |  |
| Cc1ccc(C(C)C)c(-c2ccc3c(c2)CCCO3)c1C(OC(C)(C)C)C(=O)O (stereo not drawn) [Example 5, 2-(tert-butoxy)-2-[2-(3,4-dihydro-2H-1-benzopyran-6-yl)-3-isopropyl-6-methylphenyl]acetic acid] | 23 |  |
| CC(C)(C)OC(C(=O)O)c1c(C(F)(F)F)ccc(C2CCCC2)c1-c1ccc2c(c1)CCCO2 (stereo not drawn) [Example 6, 2-(tert-butoxy)-2-[3-(cyclopentyl)-2-(3,4-dihydro-2H-1-benzopyran-6-yl)-6-(trifluoromethyl)phenyl]acetic acid] | 270 |  |
| COc1c(-c2nc3ccccc3[nH]2)cc(C(F)(F)F)c(C(OC(C)(C)C)C(=O)O)c1-c1ccc2c(c1)CCCO2 (stereo not drawn) [Example 7, 2-[4-(1H-1,3-benzodiazol-2-yl)-2-(3,4-dihydro-2H-1-benzopyran-6-yl)-3-methoxy-6-(trifluoromethyl)phenyl]-2-(tert-butoxy)acetic acid] | 62 |  |
| C=C(C)c1ccc(C(F)(F)F)c(C(OC(C)(C)C)C(=O)O)c1-c1ccc2c(c1)CCCO2 (stereo not drawn) [Example 8, 2-(tert-butoxy)-2-[2-(3,4-dihydro-2H-1-benzopyran-6-yl)-3-(prop-1-en-2-yl)-6-(trifluoromethyl)phenyl]acetic acid] | 190 |  |
| C=Cc1ccc(C(F)(F)F)c(C(OC(C)(C)C)C(=O)O)c1-c1ccc2c(c1)CCCO2 (stereo not drawn) [Example 9, 2-(tert-butoxy)-2-[2-(3,4-dihydro-2H-1-benzopyran-6-yl)-3-ethenyl-6-(trifluoromethyl)phenyl]acetic acid] | 500 |  |
| CC(C)c1ccc(C(F)(F)F)c(C(OC(C)(C)C)C(=O)O)c1-c1ccc2c(c1)CCCO2 (stereo not drawn) [Example 10, 2-(tert-butoxy)-2-[2-(3,4-dihydro-2H-1-benzopyran-6-yl)-3-(propan-2-yl)-6-(trifluoromethyl)phenyl]acetic acid] | 84 |  |
| CCc1ccc(C(F)(F)F)c(C(OC(C)(C)C)C(=O)O)c1-c1ccc2c(c1)CCCO2 (stereo not drawn) [Example 11, 2-(tert-butoxy)-2-[2-(3,4-dihydro-2H-1-benzopyran-6-yl)-3-ethyl-6-(trifluoromethyl)phenyl]acetic acid] | 360 |  |
| COc1ccc(-c2c(C3CC3)ccc(C)c2C(OC(C)(C)C)C(=O)O)cc1 (stereo not drawn) [Example 12, 2-(tert-butoxy)-2-(6-cyclopropyl-4′-methoxy-3-methyl-biphenyl-2-yl]acetic acid] | 78 |  |
| Cc1ccc(C2CC2)c(-c2ccc3c(c2)CCCO3)c1[C@H](OC(C)(C)C)C(=O)O [Example 13, (S)-2-(tert-butoxy)-2-[3-cyclopropyl-2-(3,4-dihydro-2H-1-benzopyran-6-yl)-6-methylphenyl]acetic acid] | 8 |  |
| Cc1ccc(-c2c(C3CC3)ccc(C)c2C(OC(C)(C)C)C(=O)O)cc1 (stereo not drawn) [Example 14, 2-(tert-butoxy)-2-(6-cyclopropyl-3,4′-dimethyl-biphenyl-2-yl)-acetic acid] | 51 |  |
| Cc1ccc(C2CC2)c(-c2ccc(F)cc2)c1C(OC(C)(C)C)C(=O)O (stereo not drawn) [Example 15, 2-(tert-butoxy)-2-(6-cyclopropyl-4′-fluoro-3-methyl-biphenyl-2-yl)-acetic acid] | 340 |  |
| Cc1ccc(C2CC2)c(-c2ccc3c(c2C)CCCO3)c1C(OC(C)(C)C)C(=O)O (stereo not drawn) [Example 16, 2-(tert-butoxy)-2-[3-cyclopropyl-6-methyl-2-(5-methyl-chroman-6-yl)-phenyl]acetic acid] | 9 |  |
| Cc1ccc(C2C[C@H]2C2CC2)c(-c2ccc3c(c2)CCCO3)c1C(OC(C)(C)C)C(=O)O (stereo partly drawn) [Example 17, (trans-3-bicyclopropyl-2-yl-2-chroman-6-yl-6-methyl-phenyl)-tert-butoxy-acetic acid] | 330 |  |
| Cc1ccc(C2CC2)c(C2=CCC(C)(C)CC2)c1C(OC(C)(C)C)C(=O)O (stereo not drawn) [Example 18, 2-(tert-butoxy)-2-[3-cyclopropyl-2-(4,4-dimethyl-cyclohex-1-enyl)-6-methyl-phenyl]acetic acid] | 19 |  |
| CCOC(C(=O)O)c1c(C)ccc(C2CC2)c1-c1ccc2c(c1)CCCO2 (stereo not drawn) [Example 19, 2-(2-chroman-6-yl-3-cyclopropyl-6-methyl-phenyl)-2-ethoxy-acetic acid] | 400 |  |
| Cc1ccc(C2CC2)c(-c2ccc(Cl)cc2)c1C(OC(C)(C)C)C(=O)O (stereo not drawn) [Example 20, 2-(tert-butoxy)-2-(4′-chloro-6-cyclopropyl-3-methyl-biphenyl-2-yl)acetic acid] | 54 |  |
| Cc1ccc(C2CC2)c(-c2cc(F)c3c(c2C)CCCO3)c1C(OC(C)(C)C)C(=O)O (stereo not drawn) [Example 21, tert-butoxy-[3-cyclopropyl-2-(8-fluoro-5-methyl-chroman-6-yl)-6-methyl-phenyl]-acetic acid] | 14 |  |
| Cc1ccc(CC2CC2)c(-c2ccc3c(c2)CCCO3)c1C(OC(C)(C)C)C(=O)O (stereo not drawn) [Example 22, tert-Butoxy-(2-chroman-6-yl-3-cyclopropylmethyl-6-methyl-phenyl)-acetic acid] |  | 91 |
| Cc1ccc(C2CC2)c(-c2ccc3c(c2)CCCO3)c1C(OC1CC1)C(=O)O (stereo not drawn) [Example 23, 2-[3-cyclopropyl-2-(3,4-dihydro-2H-1-benzopyran-6-yl)-6-methylphenyl]-2-cyclopropoxyacetic acid] | 100 |  |
| Cc1ccc(C2CC2)c(-c2ccc3c(c2)CCCO3)c1[C@H](OC1CC1)C(=O)O [Example 24, (S)-2-[3-cyclopropyl-2-(3,4-dihydro-2H-1-benzopyran-6-yl)-6-methylphenyl]-2-cyclopropoxyacetic acid] | 42 |  |
| Cc1ccc(C2(C)CC2)c(-c2ccc3c(c2)CCCO3)c1C(OC(C)(C)C)C(=O)O (stereo not drawn) [Example 25, tert-butoxy-[2-chroman-6-yl-6-methyl-3-(1-methyl-cyclopropyl)-phenyl]-acetic acid] | 200 |  |
| O=C(O)C(OC1CC1)c1c(C(F)(F)F)ccc(C2CC2)c1-c1ccc2c(c1)CCCO2 (stereo not drawn) [Example 27, (2-chroman-6-yl-3-cyclopropyl-6-trifluoromethyl-phenyl)-cyclopropoxy-acetic acid] | 280 |  |
